What was measured:
[1] = biological target: RAC-beta serine/threonine-protein kinase (Homo sapiens) (UniProt P31751); assay: Inhibition of AKT2 (unknown origin) at 30 uM by microfluidic assay relative to control
[2] = biological target: T1, Aurora kinase A (Homo sapiens) (UniProt O14965); assay: Inhibition of AurA (unknown origin) at 30 uM by microfluidic assay relative to control
T1 sequence (whole entry): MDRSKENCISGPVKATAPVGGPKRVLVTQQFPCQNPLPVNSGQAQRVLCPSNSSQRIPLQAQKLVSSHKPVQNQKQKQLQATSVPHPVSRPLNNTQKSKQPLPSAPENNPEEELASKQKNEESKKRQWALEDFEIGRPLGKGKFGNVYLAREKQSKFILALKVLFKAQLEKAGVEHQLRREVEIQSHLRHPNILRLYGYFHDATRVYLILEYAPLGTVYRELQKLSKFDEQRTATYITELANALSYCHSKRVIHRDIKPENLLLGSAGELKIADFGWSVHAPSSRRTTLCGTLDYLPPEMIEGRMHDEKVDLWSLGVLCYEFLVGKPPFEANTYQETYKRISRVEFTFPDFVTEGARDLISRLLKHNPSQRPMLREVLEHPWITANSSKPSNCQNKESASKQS

[3] = biological target: Insulin receptor (Homo sapiens) (UniProt P06213); assay: Inhibition of InsR (unknown origin) at 30 uM by microfluidic assay relative to control
[4] = biological target: Ribosomal protein S6 kinase alpha-1 (Homo sapiens) (UniProt Q15418); assay: Inhibition of RSK1 (unknown origin) at 30 uM by microfluidic assay relative to control
[5] = biological target: Tyrosine-protein kinase Lck (Homo sapiens) (UniProt P06239); assay: Inhibition of LCK (unknown origin) at 30 uM by microfluidic assay relative to control
[6] = biological target: Mitogen-activated protein kinase 1 (Homo sapiens) (UniProt P28482); assay: Inhibition of Erk2 (unknown origin) at 30 uM by microfluidic assay relative to control
[7] = biological target: Tyrosine-protein kinase ABL1 (Homo sapiens) (UniProt P00519); assay: Inhibition of ABL (unknown origin) at 30 uM by microfluidic assay relative to control
[8] = biological target: T2, Serine/threonine-protein kinase Chk1 (Homo sapiens, UniProt O14757); assay: Inhibition of CHK1 (unknown origin) by microfluidic assay relative to control
T2 sequence (O14757 whole entry): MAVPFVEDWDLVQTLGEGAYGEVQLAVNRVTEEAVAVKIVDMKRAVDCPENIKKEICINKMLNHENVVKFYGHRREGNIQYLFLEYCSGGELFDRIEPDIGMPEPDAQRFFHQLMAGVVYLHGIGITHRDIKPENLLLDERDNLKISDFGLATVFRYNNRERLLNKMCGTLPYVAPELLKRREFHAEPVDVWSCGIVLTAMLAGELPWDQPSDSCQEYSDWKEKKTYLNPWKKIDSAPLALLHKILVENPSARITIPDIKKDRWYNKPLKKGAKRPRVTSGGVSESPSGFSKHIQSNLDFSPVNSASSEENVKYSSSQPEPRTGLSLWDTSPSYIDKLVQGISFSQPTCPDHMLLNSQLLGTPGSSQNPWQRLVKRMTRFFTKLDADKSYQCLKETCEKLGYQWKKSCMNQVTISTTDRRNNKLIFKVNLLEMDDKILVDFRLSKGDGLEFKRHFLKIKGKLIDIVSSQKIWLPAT

[9] = biological target: Mitogen-activated protein kinase 14 (Homo sapiens) (UniProt Q16539); assay: Inhibition of p38a (unknown origin) at 30 uM by microfluidic assay relative to control
[10] = biological target: Serine/threonine-protein kinase Chk2 (Homo sapiens) (UniProt O96017); assay: Inhibition of CHK2 (unknown origin) at 30 uM by microfluidic assay relative to control
[11] = biological target: RAC-alpha serine/threonine-protein kinase (Homo sapiens) (UniProt P31749); assay: Inhibition of AKT1 (unknown origin) at 30 uM by microfluidic assay relative to control
[12] = biological target: Vascular endothelial growth factor receptor 2 (Homo sapiens, UniProt P35968); assay: Inhibition of VEGFR-2 (unknown origin) by microfluidic assay relative to control
[13] = biological target: Casein kinase I isoform delta (Homo sapiens) (UniProt P48730); assay: Inhibition of CK1d (unknown origin) at 30 uM by microfluidic assay relative to control
[14] = biological target: T3, Serine/threonine-protein kinase D2 (Homo sapiens) (UniProt Q9BZL6); assay: Inhibition of PKD2 (unknown origin) at 30 uM by microfluidic assay relative to control
T3 sequence (whole entry): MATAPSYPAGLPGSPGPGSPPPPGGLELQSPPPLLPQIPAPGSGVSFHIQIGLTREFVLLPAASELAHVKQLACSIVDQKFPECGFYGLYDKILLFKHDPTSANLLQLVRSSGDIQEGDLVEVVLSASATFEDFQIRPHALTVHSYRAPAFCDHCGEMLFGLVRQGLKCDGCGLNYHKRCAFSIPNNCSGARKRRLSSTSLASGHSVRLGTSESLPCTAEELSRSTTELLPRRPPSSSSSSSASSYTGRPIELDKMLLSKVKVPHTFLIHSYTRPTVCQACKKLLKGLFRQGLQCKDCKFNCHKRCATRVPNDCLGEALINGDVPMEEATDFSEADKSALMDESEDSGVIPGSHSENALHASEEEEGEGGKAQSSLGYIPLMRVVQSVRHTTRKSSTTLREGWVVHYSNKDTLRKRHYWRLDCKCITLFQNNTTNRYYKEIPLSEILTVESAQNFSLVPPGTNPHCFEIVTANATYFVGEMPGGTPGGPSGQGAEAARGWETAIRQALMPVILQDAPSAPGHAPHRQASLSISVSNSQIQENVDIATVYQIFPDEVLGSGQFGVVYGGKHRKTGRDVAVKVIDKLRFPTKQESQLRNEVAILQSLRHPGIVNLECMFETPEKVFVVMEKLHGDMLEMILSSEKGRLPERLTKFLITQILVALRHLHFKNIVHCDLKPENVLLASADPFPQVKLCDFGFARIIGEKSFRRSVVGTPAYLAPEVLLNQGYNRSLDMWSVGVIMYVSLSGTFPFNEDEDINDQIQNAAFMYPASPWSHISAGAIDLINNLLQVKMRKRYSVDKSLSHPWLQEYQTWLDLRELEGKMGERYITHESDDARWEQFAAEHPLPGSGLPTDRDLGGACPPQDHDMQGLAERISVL

[15] = biological target: MAP kinase-activated protein kinase 2 (Homo sapiens) (UniProt P49137); assay: Inhibition of MK2 (unknown origin) at 30 uM by microfluidic assay relative to control
[16] = biological target: Tyrosine-protein kinase Fyn (Homo sapiens) (UniProt P06241); assay: Inhibition of FYN (unknown origin) at 30 uM by microfluidic assay relative to control
[17] = biological target: Ribosomal protein S6 kinase alpha-5 (Homo sapiens) (UniProt O75582); assay: Inhibition of MSK1 (unknown origin) at 30 uM by microfluidic assay relative to control
[18] = biological target: Hepatocyte growth factor receptor (Homo sapiens) (UniProt P08581); assay: Inhibition of MET (unknown origin) at 30 uM by microfluidic assay relative to control

Sequence of Casein kinase I isoform delta (Homo sapiens) (P48730 whole entry, looked up, canonical isoform): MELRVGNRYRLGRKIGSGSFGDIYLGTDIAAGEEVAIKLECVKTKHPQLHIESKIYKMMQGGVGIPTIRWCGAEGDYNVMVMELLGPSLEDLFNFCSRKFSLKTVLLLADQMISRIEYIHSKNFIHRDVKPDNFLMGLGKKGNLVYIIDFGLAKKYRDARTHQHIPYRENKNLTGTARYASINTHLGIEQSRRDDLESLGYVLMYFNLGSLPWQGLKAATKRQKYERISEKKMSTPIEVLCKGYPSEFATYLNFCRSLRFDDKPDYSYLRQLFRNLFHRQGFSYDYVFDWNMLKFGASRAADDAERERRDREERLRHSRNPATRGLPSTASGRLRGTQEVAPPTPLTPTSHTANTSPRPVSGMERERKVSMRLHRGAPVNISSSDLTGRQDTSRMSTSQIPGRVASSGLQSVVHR
Sequence of Insulin receptor (Homo sapiens) (P06213 28-758 limits assumed): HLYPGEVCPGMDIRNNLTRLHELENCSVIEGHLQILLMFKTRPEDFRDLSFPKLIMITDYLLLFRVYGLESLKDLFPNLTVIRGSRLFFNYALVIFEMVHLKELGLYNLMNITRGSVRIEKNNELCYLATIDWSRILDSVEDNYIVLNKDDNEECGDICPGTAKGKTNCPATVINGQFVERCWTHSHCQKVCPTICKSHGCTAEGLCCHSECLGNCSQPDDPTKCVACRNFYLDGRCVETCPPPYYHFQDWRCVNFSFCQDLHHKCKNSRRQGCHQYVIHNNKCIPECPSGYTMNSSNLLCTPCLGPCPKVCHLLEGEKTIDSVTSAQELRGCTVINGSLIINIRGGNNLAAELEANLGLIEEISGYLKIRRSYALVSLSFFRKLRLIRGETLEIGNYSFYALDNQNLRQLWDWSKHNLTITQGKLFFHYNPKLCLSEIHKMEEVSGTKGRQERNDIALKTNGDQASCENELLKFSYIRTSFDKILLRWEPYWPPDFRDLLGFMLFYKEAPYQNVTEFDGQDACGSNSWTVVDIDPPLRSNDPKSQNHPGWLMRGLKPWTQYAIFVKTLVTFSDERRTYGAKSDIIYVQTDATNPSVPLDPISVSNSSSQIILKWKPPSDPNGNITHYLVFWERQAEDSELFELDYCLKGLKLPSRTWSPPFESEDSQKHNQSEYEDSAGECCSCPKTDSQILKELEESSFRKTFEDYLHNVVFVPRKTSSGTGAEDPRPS
Sequence of Insulin receptor (Homo sapiens) (P06213 763-1382 limits assumed): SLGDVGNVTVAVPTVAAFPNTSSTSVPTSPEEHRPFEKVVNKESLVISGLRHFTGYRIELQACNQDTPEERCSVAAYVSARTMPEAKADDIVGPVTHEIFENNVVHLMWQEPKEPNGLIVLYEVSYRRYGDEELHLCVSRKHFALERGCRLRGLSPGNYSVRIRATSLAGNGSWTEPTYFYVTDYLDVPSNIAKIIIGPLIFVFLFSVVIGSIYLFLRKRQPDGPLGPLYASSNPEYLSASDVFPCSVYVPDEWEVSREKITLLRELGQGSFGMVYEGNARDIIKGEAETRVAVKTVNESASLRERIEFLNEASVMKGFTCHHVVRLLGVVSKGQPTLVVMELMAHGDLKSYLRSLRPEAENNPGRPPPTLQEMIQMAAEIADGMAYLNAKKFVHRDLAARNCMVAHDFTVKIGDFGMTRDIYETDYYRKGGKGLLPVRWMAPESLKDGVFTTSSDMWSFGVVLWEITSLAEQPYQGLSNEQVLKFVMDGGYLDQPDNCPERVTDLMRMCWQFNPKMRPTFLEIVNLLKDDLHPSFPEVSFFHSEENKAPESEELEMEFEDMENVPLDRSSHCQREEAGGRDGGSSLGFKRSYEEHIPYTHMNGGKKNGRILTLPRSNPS
Sequence of Serine/threonine-protein kinase Chk2 (Homo sapiens) (O96017 whole entry): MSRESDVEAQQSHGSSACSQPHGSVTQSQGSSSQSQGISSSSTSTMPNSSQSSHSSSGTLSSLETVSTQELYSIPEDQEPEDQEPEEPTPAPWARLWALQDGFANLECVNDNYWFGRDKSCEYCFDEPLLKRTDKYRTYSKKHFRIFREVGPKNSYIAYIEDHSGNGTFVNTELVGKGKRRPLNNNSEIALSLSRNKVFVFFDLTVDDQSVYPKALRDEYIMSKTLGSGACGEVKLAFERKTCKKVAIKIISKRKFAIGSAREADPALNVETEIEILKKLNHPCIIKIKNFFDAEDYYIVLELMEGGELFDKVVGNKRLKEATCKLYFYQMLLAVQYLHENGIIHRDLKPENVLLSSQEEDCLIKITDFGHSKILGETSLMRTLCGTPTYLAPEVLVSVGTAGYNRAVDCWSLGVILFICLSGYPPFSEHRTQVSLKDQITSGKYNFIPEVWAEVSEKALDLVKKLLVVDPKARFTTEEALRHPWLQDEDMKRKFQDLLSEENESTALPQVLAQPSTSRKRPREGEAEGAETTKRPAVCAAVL
Sequence of RAC-alpha serine/threonine-protein kinase (Homo sapiens) (P31749 whole entry): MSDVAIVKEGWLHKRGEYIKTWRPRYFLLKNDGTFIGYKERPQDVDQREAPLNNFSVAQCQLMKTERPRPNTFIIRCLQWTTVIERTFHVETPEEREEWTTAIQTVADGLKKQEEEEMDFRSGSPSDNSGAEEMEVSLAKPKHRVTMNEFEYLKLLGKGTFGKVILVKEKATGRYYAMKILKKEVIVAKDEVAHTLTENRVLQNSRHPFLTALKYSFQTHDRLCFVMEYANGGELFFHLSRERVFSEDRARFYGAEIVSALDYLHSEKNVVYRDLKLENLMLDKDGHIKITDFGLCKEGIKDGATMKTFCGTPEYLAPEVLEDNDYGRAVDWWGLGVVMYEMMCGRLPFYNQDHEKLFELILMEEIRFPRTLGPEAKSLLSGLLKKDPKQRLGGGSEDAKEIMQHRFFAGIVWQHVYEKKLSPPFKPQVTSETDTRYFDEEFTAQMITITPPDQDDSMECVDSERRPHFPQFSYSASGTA
Sequence of Mitogen-activated protein kinase 1 (Homo sapiens) (P28482 whole entry): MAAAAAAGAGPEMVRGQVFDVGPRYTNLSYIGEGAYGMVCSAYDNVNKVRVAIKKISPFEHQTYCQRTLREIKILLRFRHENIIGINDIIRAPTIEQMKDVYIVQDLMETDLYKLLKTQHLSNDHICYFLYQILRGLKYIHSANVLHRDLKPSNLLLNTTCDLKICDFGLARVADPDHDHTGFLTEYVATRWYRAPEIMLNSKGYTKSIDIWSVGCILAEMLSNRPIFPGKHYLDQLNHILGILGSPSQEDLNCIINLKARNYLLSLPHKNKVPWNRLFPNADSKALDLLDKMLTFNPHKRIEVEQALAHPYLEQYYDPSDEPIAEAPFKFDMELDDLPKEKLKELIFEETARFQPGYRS
Sequence of MAP kinase-activated protein kinase 2 (Homo sapiens) (P49137 whole entry, looked up): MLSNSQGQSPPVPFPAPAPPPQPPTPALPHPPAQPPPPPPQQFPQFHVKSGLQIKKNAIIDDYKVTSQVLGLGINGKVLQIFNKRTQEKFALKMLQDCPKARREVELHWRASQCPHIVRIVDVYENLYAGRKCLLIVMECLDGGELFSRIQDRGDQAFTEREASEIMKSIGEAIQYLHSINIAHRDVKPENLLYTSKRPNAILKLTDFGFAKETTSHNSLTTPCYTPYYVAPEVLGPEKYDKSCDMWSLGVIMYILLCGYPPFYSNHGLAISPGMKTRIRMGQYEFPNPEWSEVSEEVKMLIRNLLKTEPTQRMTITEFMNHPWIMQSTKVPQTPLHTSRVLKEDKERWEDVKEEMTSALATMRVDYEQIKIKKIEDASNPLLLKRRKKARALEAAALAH
Sequence of Tyrosine-protein kinase Lck (Homo sapiens) (P06239 2-509 limits assumed): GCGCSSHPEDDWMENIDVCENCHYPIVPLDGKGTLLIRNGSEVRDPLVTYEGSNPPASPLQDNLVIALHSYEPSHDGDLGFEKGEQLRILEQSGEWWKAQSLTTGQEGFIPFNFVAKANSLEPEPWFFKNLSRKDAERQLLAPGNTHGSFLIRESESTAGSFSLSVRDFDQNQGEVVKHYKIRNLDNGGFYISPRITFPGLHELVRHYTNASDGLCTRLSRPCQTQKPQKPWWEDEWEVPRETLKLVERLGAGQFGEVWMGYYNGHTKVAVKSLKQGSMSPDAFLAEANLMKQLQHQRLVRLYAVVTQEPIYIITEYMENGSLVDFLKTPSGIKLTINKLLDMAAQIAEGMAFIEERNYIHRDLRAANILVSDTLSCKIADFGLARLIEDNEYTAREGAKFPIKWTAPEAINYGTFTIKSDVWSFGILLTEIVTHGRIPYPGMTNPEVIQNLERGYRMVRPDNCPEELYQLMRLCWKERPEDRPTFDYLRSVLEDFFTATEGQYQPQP
Sequence of RAC-beta serine/threonine-protein kinase (Homo sapiens) (P31751 whole entry): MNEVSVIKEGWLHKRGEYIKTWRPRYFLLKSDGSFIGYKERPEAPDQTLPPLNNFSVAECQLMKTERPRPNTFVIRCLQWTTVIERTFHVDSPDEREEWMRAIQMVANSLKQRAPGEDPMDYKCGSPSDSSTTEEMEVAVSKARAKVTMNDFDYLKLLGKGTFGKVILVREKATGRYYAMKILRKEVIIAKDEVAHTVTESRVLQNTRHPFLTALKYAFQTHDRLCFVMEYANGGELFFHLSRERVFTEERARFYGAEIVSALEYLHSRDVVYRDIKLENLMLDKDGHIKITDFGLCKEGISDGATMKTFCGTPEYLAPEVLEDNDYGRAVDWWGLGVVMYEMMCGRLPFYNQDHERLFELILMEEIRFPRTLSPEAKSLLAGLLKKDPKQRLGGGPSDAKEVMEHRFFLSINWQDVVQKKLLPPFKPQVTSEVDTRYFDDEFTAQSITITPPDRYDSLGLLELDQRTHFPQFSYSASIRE
Sequence of Mitogen-activated protein kinase 14 (Homo sapiens) (Q16539 whole entry): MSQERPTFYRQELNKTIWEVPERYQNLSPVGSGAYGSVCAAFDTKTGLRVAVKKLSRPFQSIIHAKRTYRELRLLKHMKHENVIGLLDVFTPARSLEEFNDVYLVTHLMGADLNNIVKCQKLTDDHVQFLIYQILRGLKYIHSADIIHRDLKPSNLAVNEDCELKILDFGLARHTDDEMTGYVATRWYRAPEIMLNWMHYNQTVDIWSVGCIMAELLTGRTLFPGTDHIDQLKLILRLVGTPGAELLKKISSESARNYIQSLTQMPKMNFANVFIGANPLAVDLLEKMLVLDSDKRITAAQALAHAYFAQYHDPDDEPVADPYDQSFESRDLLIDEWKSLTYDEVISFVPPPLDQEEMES

Row | SMILES | inhibition [1] [%] | inhibition [2] [%] | inhibition [3] [%] | inhibition [4] [%] | inhibition [5] [%] | inhibition [6] [%] | inhibition [7] [%] | IC50 [8] [nM] | inhibition [9] [%] | inhibition [10] [%] | inhibition [11] [%] | IC50 [12] [nM] | inhibition [13] [%] | inhibition [14] [%] | inhibition [15] [%] | inhibition [16] [%] | inhibition [17] [%] | inhibition [18] [%]
1 | Cc1[nH]c(-c2ccccc2)c(-c2ccccc2)c1C(=O)c1coc2c1cc(O)c1ccccc12 | 56 | 23 | 32 | 4 | 32 | 21 | 4 | 310 | 21 | 55 | 13 | 4560 | 22 | 54 | 76 | 21 | 34 | 34
2 | Cc1[nH]c(-c2ccccc2)c(-c2ccccc2)c1-c1nnc(O)c2nn(-c3ccccc3)cc12 | 56 | 32 | 12 | 36 | 32 | 23 | 5 | 690 | 2 | 24 | 90 | 3450 | 53 | 32 | 19 | 12 | 34 | 4
3 | Cc1[nH]c(-c2ccccc2)c(-c2ccccc2)c1C(=O)c1cn(-c2ccccc2)nc1C(=O)Nc1ccccc1 | 86 | 2 | 33 | 2 | 25 | 24 | 32 | 800 | 13 | 4 | 45 | 3450 | 43 | 65 | 26 | 21 | 87 | 3

From ChEMBL document CHEMBL3739348, “Novel pyrrole derivatives as selective CHK1 inhibitors: design, regioselective synthesis and molecular modeling” (Medchemcomm, 2015)
